Data on eleven compounds can be found in patent US20110183969A1, “ANTIFUNGAL COMBINATION THERAPY” (priority 2008, published 2011).

What all share (test): MIC (YAG medium)
Common to all, as to assay type: cell-based

One test deals with Aspergillus terreus AT49. To be noted: for MIC: Aspergillus terreus. The procedure: (§1) Between 1 and 5 mgs of compound were accurately weighed out into a sterile Eppendorf tube. The compound was dissolved in DMSO to give a solution containing 5 mg/mL. Tubes were stored at −20° C. until required.
(§2) On the day of testing thawed solutions were vortex mixed to ensure homogeneity. 30 μL of solution was removed and added to 570 μL of sterile water in a separate sterile Eppendorf The thoroughly mixed solution was used to prepare a series of doubling dilutions in water, in a deep well plate. […] replicate plates were prepared using a Minitrak by aspirating 20 μL from each well into eleven clear polystyrene 96 well plates.
(§3) Spores of Aspergillus spp. (Aspergillus fumigatus [two strains], Aspergillus terreus [two strains], Aspergillus niger and Aspergillus flavus) were harvested from cultures grown on Sabarauds agar for 5 days, and resuspended in PBS/Tween 80 to approx 1×10^7 cfu/mL. Other filamentous fungi (Absidia corymbifera, Fusarium solani, Rhizomucor, Scedosporium spp., Trichophyton spp.), were grown on Sabarauds agar for 2-10 days and spores/hyphae resuspended in PBS/Tween to give approx 1×10^7 cfu/mL. Candida species (Candida albicans, Candida glabrata, Candida krusei, Candida parapsilosis and Candida tropicalis) were grown on Sabarauds agar, cells were harvested from the agar using a sterile loop and resuspended in PBS/Tween 80 to approx 1×10^6 cfu/mL. Each organism suspension was diluted in RPMI medium, containing 2% glucose and 0.135 M MOPS buffer (pH 7.0) to 0.5−2×10^4 cfu/mL for Aspergillus spp. and other filamentous fungi and 0.5-2×10^3 cfu/mL for yeast. 80 μL of an organism suspension was added to each well of the plate containing drug dilutions.
(§4) This produced MIC plates with a drug range 50-0.05 mg/L and organism inocula of 1-2×10^4 cfu/mL for Aspergillus spp. and other filamentous fungi and 1-2×10^3 cfu/mL for yeasts. All plates were incubated for 24-48 hrs at 35° C. Growth was assessed by monitoring the optical density at 485 nm for each well. The MIC of a compound is the lowest drug concentration that inhibits growth of an organism by >80% compared with a drug free control. MICs are recorded as mg/L. Other growth media can be used for susceptibility testing, and the activity of the described compounds can also be assessed in a medium comprising 1% glucose, 1% ammonium chloride and 0.5% yeast extract (YAG medium). To perform MIC tests in this medium, dilutions of compounds are prepared in microtitre plates as described above. Fungal strains to be tested are grown and harvested in an identical manner to that described above, each organism suspension is then diluted in YAG medium to 0.5-2×10^4 cfu/mL for Aspergillus spp. and other filamentous fungi and 0.5-2×10^3 cfu/mL for yeast. 80 μL of an organism suspension was added to each well of the plate containing drug dilutions. This produced MIC plates with a drug range 50-0.05 mg/L and organism inocula of 1-2×10^4 cfu/mL for Aspergillus spp. and other filamentous fungi and 1-2×10^3 cfu/mL for yeasts. All plates were incubated for 24 hrs at 35° C. Growth was assessed by monitoring the optical density at 485 nm for each well. The MIC of a compound is the lowest drug concentration that inhibits growth of an organism by >70% compared with a drug free control. MICs are recorded as mg/L. In cases where the MIC of an organism is […] mg/L the MIC is repeated using a concentration range of 0.5-0.0005 mg/L. MIC tests in YAG medium have more clear-cut endpoints and have slightly lower MICs than those performed in RPMI medium.
(§5) The following organisms were tested: Absidia corymbifera, Aspergillus flavus, Aspergillus fumigatus AF293 and AF210, Aspergillus niger, Aspergillus terreus AT4 and AT49, Candida albicans, Candida glabrata, Candida krusei, Candida parapsilosis, Candida tropicalis, Fusarium solani, Rhizomucor sp., Scedosporium apiospermum, Scedosporium prolificans, Trichophyton mentagrophytes, and Trichophyton rubrum.

The test system of the next test is Aspergillus terreus AT4. To be noted: for MIC: Aspergillus terreus. The procedure: as §1, §2, §3, §4, §5
The next test deals with Aspergillus flavus. To be noted: for MIC: Aspergillus flavus, read-out: MIC A. flavus (grade). The procedure: as §1, §2, §3, §4, §5
Another test relates to Aspergillus niger. To be noted: for MIC: Aspergillus niger, read-out: MIC A. niger (grade). The procedure: as §1, §2, §3, §4, §5
The subject of test [1] is Aspergillus fumigatus AF293. To be noted: for MIC: Aspergillus fumigatus. The procedure:
as §1, §2, §3, §4, §5

The test system of test [2] is Aspergillus fumigatus AF210. To be noted: for MIC: Aspergillus fumigatus. The procedure:
as §1, §2, §3, §4, §5

[3] abbreviates: YAG medium, MIC banded into grades, AT49, read-out: MIC A. terreus 49 (grade).
Where [4] appears, read: YAG medium, MIC banded into grades, AT4, read-out: MIC A. terreus (grade).
Setting [5] is: YAG medium, MIC banded into grades.
Where [6] appears, read: YAG medium, MIC banded into grades, AF293, read-out: MIC A. fumigatus (grade).
[7] abbreviates: YAG medium, MIC banded into grades, AF210, read-out: MIC A. fumigatus 210 (grade).
[8] abbreviates: YAG medium, MIC banded into grades, AT49.
Where [9] appears, read: YAG medium, MIC banded into grades, AT4.
Where [10] appears, read: YAG medium, MIC banded into grades, AF293.
[11] abbreviates: YAG medium, MIC banded into grades, AF210.

Converted amounts (≈) assume the structure as drawn. Where two headings read alike, the source gives them in different places.

Take `CC(C)c1nc(C(C)(C)c2ccc(NC(=O)C(=O)c3c(-c4ccccc4)cc4ccccn34)cc2)cn1C` [Example 16, N-{4-[1-(2-isopropyl-1-methyl-1H-imidazol-4-yl)-1-methyl-ethyl]-phenyl}-2-oxo-2-(2-phenyl-indolizin-3-yl)-acetamide]: the MIC (as a rule, the lowest concentration that inhibits growth of the organism) in the test on Aspergillus terreus AT49 (setting [3]) is less than 1 µg/mL; in the test with Aspergillus terreus AT4 (setting [4]), less than 1 µg/mL; in the test with Aspergillus flavus (setting [5]), less than 1 µg/mL; in the test with Aspergillus niger (setting [5]), 1 to 10 µg/mL (≈ 1.98 to 19.8 µM); in test [1] (setting [6]), 1 to 10 µg/mL (≈ 1.98 to 19.8 µM); in test [2] (setting [7]), 1 to 10 µg/mL (≈ 1.98 to 19.8 µM).
For `CC(C)c1ncc(C(C)(C)c2ccc(NC(=O)C(=O)c3c(-c4ccccc4)cc4ccccn34)cc2)n1C` [Example 17, N-{4-[1-(2-Isopropyl-3-methyl-3H-imidazol-4-yl)-1-methyl-ethyl]-phenyl}-2-oxo-2-(2-phenyl-indolizin-3-yl)-acetamide], the MIC was 1 to 10 µg/mL (≈ 1.98 to 19.8 µM) in the test on Aspergillus terreus AT49 (setting [3]); 1 to 10 µg/mL (≈ 1.98 to 19.8 µM) in the test with Aspergillus terreus AT4 (setting [4]); greater than 10 µg/mL in the test on Aspergillus flavus (setting [5]); 1 to 10 µg/mL (≈ 1.98 to 19.8 µM) in the test on Aspergillus niger (setting [5]); greater than 10 µg/mL in test [1] (setting [6]); greater than 10 µg/mL in test [2] (setting [7]).
As for `CC(C)c1nccn1CCOC(=O)C(C)(C)c1ccc(NC(=O)C(=O)c2c(-c3ccccc3)cc3ccccn23)cc1` [Example 18, 2-methyl-2-{4-[2-oxo-2-(2-phenyl-indolizin-3-yl)-acetylamino]-phenyl}-propionic acid 2-(2-isopropyl-imidazol-1-yl)-ethyl ester], the minimum inhibitory concentration (MIC) with Aspergillus terreus AT49 (setting [3]) was 1 to 10 µg/mL (≈ 1.78 to 17.8 µM); with Aspergillus terreus AT4 (setting [4]), greater than 10 µg/mL; in the test on Aspergillus flavus (setting [5]) it was greater than 10 µg/mL; in the test on Aspergillus niger (setting [5]) it was greater than 10 µg/mL; in test [1] (setting [6]) it was greater than 10 µg/mL; in test [2] (setting [7]) it was greater than 10 µg/mL.
Turning to `CN1CCN(c2ccc(NC(=O)C(=O)c3c(-c4ccccc4)cc4ccccn34)cc2-c2ncco2)CC1` [Example 19, N-[4-(4-methyl-piperazin-1-yl)-3-oxazol-2-yl-phenyl]-2-oxo-2-(2-phenyl-indolizin-3-yl)-acetamide], the MIC in the test with Aspergillus terreus AT49 (setting [3]) was 1 to 10 µg/mL (≈ 1.98 to 19.8 µM); with Aspergillus terreus AT4 (setting [4]) it was 1 to 10 µg/mL (≈ 1.98 to 19.8 µM); in the test with Aspergillus flavus (setting [5]), greater than 10 µg/mL; with Aspergillus niger (setting [5]) it was greater than 10 µg/mL; in test [1] (setting [6]), greater than 10 µg/mL; in test [2] (setting [7]) it was greater than 10 µg/mL.
For the compound `Cc1nccn1CCCOc1ccc(NC(=O)C(=O)c2c(-c3ccccc3)cc3ccccn23)cc1C(C)C` [Example 20, N-{3-Isopropyl-4-[3-(2-methyl-imidazol-1-yl)-propoxy]-phenyl}-2-oxo-2-(2-phenyl-indolizin-3-yl)-acetamide], the MIC with Aspergillus terreus AT49 (setting [3]) was less than 1 µg/mL; with Aspergillus terreus AT4 (setting [4]), 1 to 10 µg/mL (≈ 1.92 to 19.2 µM); in the test with Aspergillus flavus (setting [5]), less than 1 µg/mL; with Aspergillus niger (setting [5]), greater than 10 µg/mL; in test [1] (setting [6]), 1 to 10 µg/mL (≈ 1.92 to 19.2 µM); in test [2] (setting [7]) it was 1 to 10 µg/mL (≈ 1.92 to 19.2 µM).
Take `CC(C)c1nccn1CCOC(=O)C(C)(C)c1cccc(NC(=O)C(=O)c2c(-c3ccccc3)cc3ccccn23)c1` [Example 22, 2-Methyl-2-{3-[2-oxo-2-(2-phenyl-indolizin-3-yl)-acetylamino]-phenyl}-propionic acid 2-(2-isopropyl-imidazol-1-yl)-ethyl ester]: the minimal inhibitory concentration (MIC) in the test on Aspergillus terreus AT49 (setting [3]) was 1 to 10 µg/mL (≈ 1.78 to 17.8 µM); in the test with Aspergillus terreus AT4 (setting [4]), 1 to 10 µg/mL (≈ 1.78 to 17.8 µM); in the test on Aspergillus flavus (setting [5]), 1 to 10 µg/mL (≈ 1.78 to 17.8 µM); in the test with Aspergillus niger (setting [5]) it was greater than 10 µg/mL; in test [1] (setting [6]), greater than 10 µg/mL; in test [2] (setting [7]), greater than 10 µg/mL.
As for `Cc1nc(C(C)C)cn1C(C)(C)c1cccc(NC(=O)C(=O)c2c(-c3ccccc3)cc3ccccn23)c1` [Example 25], the “MIC A. terreus 49 (grade)” value with Aspergillus terreus AT49 (setting [8]) was 2 (A grade of 2 represents an MIC of from 1 to 10). Besides, in the test on Aspergillus terreus AT4 (setting [9]), the “MIC A. terreus (grade)” value is on record as 2 (A grade of 2 represents an MIC of from 1 to 10). Besides, the “MIC A. flavus (grade)” value against Aspergillus flavus (setting [5]) is on record as 2 (A grade of 2 represents an MIC of from 1 to 10). Besides, the “MIC A. niger (grade)” value in the test on Aspergillus niger (setting [5]) is on record as 1 (a grade of 1 represents an MIC of greater than 10 mg/L). In addition, in test [1] (setting [10]), the “MIC A. fumigatus (grade)” value is 1 (a grade of 1 represents an MIC of greater than 10 mg/L). Besides, in test [2] (setting [11]), the “MIC A. fumigatus 210 (grade)” value is recorded as 1 (a grade of 1 represents an MIC of greater than 10 mg/L).
`O=C(Nc1ccc(N2CCC(N3CCOCC3)CC2)cc1)C(=O)c1c(-c2ccccc2Cl)cc2ccccn12` [Example 26, 2-[2-(2-Chloro-phenyl)-indolizin-3-yl]-N-[4-(4-morpholin-4-yl-piperidin-1-yl)-phenyl]-2-oxo-acetamide]: the MIC is less than 1 µg/mL with Aspergillus terreus AT49 (setting [3]); 1 to 10 µg/mL (≈ 1.84 to 18.4 µM) in the test on Aspergillus terreus AT4 (setting [4]); less than 1 µg/mL in the test on Aspergillus flavus (setting [5]); 1 to 10 µg/mL (≈ 1.84 to 18.4 µM) with Aspergillus niger (setting [5]); 1 to 10 µg/mL (≈ 1.84 to 18.4 µM) in test [1] (setting [6]); less than 1 µg/mL in test [2] (setting [7]).
On to `CCN(CC)C(=O)Oc1cc(-c2ccc(NC(=O)C(=O)c3c(-c4ccccc4)cc4ccccn34)cc2)on1` [Example 27, Diethyl-carbamic acid-5-{4-[2-oxo-2-(2-phenyl-indolizin-3-yl)-acetylamino]-phenyl}-isoxazol-3-yl ester], for which the minimal inhibitory concentration (MIC) is less than 1 µg/mL in the test with Aspergillus terreus AT49 (AT49, read-out: MIC A. terreus 49 (grade)); less than 1 µg/mL in the test with Aspergillus terreus AT4 (AT4, read-out: MIC A. terreus (grade)); less than 1 µg/mL in the test on Aspergillus flavus; less than 1 µg/mL in the test on Aspergillus niger; less than 1 µg/mL in test [1] (AF293, read-out: MIC A. fumigatus (grade)); less than 1 µg/mL in test [2] (AF210, read-out: MIC A. fumigatus 210 (grade)).
For the compound `CCOCCN(C1=NC(C)(C)CO1)c1ccc(NC(=O)C(=O)c2c(-c3ccccc3)cc3ccccn23)cc1` [Example 28], in the test on Aspergillus terreus AT49 (setting [8]), the “MIC A. terreus 49 (grade)” value is 2 (A grade of 2 represents an MIC of from 1 to 10). In the test with Aspergillus terreus AT4 (setting [9]), the “MIC A. terreus (grade)” value is recorded as 2 (A grade of 2 represents an MIC of from 1 to 10). In the test with Aspergillus flavus (setting [5]), the “MIC A. flavus (grade)” value is given as 2 (A grade of 2 represents an MIC of from 1 to 10). In the test on Aspergillus niger (setting [5]), the “MIC A. niger (grade)” value was 3 (A grade of 3 represents an MIC of less than 1 mg/L). The “MIC A. fumigatus (grade)” value in test [1] (setting [10]) is 2 (A grade of 2 represents an MIC of from 1 to 10). Moreover, in test [2] (setting [11]), the “MIC A. fumigatus 210 (grade)” value is listed as 2 (A grade of 2 represents an MIC of from 1 to 10).
Regarding `CN1CCN(c2oc(-c3ccc(NC(=O)C(=O)c4c(-c5ccccc5)cc5ccccn45)cc3)nc2C(=O)C(F)(F)F)CC1` [Example 29, N-{4-[5-(4-Methyl-piperazin-1-yl)-4-(2,2,2-trifluoro-acetyl)-oxazol-2-yl]-phenyl}-2-oxo-2-(2-phenyl-indolizin-3-yl)-acetamide], the MIC in the test with Aspergillus terreus AT49 (setting [3]) is less than 1 µg/mL; in the test with Aspergillus terreus AT4 (setting [4]), less than 1 µg/mL; in the test with Aspergillus flavus (setting [5]), less than 1 µg/mL; in the test on Aspergillus niger (setting [5]) it was less than 1 µg/mL; in test [1] (setting [6]) it was less than 1 µg/mL; in test [2] (setting [7]) it was 1 to 10 µg/mL (≈ 1.66 to 16.6 µM).
